What was measured:
[1] = test system: pTlO plasmid (dA10/dT10 insert) and corresponding plasmids linearized with CfrlOI; test: Site-specific S1 nuclease digestion of linearized plasmid complexed with PNA; format: biochemical; conditions: 145 units S1 nuclease, room temperature; each PNA with its corresponding plasmid
Protocol: PNA H-T10-LysNH2 (SEQ ID NO:2) was synthesized as described in Example 1. A pTlO plasmid was prepared from the pUC19 plasmid by inserting the dA10/dT10 (SEQ ID NO:3) sequence into the BamHl site of the polylinker as per the method of Egholm, N et al., J.A.C.S. 1992 114:1895-1897. The pTlO plasmid was linearized with CfrlOI restriction enzyme in the unique site. To form complex with the PNA, about0.1 μg of the linearized plasmid was incubated with 2 o.u./ml of PNA in 3 μl of the TE buffer (10 mM Tris-HCl; 1 mM EDTA, pH 7.4) at 37° C. To perform the S1 nuclease reaction, 10 μl of Na-Acetate buffer (33 mM NaAc; 50 mM NaCl; 10 mM ZnSO4; 0.5% of glycerol, pH 4.6) and 145 units of S1 nuclease (Sigma) were added and incubated for various time periods at room temperature. The reaction was terminated by adding 1 μl of 0.5 M EDTA and cooling to −20° C. Electrophoresis was performed in 1% agarose gel in the TBE buffer with subsequent staining with ethidium bromide. The results of this example are shown in FIG. 1 wherein the size of the markers are shown as are the incubation time periods. In FIG. 8 Lane 1: control—preincubation of DNA with PNA was performed under conditions unfavorable for complex formation (200 mM of NaCl). Lane 2: the reference band obtained by digestion with BamHI restriction enzyme. Lane 3: reference bands obtained by the digestion with Bgll restriction enzyme. […]

[2] = test system: T3 RNA polymerase transcription of pA10KS (d(A10) target); test: Inhibition of RNA polymerase T3 transcription elongation by PNA; format: biochemical; conditions: PNA 1 or 10 uM bound to the template strand
Protocol: The complex, between PNA T10-LysNH2 (SEQ ID NO:2) (1 or 10 um) and pAIOKS (pBluescriptKS^+ in which the d(A10) target is cloned into the BamHl site, analogous to pTlO) (100 ng) cleaved with restriction enzyme PyuII, XbaI, or BamHl, was formed by incubation in 14 μL 10 m Tris-HCl, 1 mM EDTA, (pH 7.4) buffer for 60 min. at 37° C. Subsequently 4 μL 5× concentrated polymerase buffer (0.2 M Tris-HCl, pH 8.0, 125 mM NaCl, 40 mM MgCl2, 10 mM spermidine) was added together with 15 U T3 RNA polymerase and ATP (10 mM), CTP (10 mM), GTP (10 mM), UTP (1 mM) and ^32P-UTP (0.1 μCi), and the incubation was continued for 10 min. Following ethanol precipitation, the RNA was analyzed by electrophoresis in sequencing gels and the radiolabeled bands were visualized by autoradiography using intensifying screens. The results are shown in FIG. 18: Lane 1: pTIOKS was cut with PyuH and no PNA was present. Lane 2: pTIOKS was cut with BamHl, and no PNA was present. Lane 3: pTIOKS was cut with XbaI, no PNA. Lane 4: as in lane 1 but in the presence of PNA (1 uM). Lane 5: as lane 3+PNA (1 uM). Lane 6: as lane 1+PNA (10 uM). Lane 7: as lane 3+PNA (10 uM).
The complex between the desired PNA and the desired DNA (100 ng) cleaved with the desired restriction enzyme was formed by incubation in 14 μL 10 mM Tris-HCl, 1 mM EDTA, (pH 7.4) buffer for 60 min at 37° C. Subsequently 4 μL 5× concentrated polymerase buffer (0.2 M Tris-HCl, pH 8.0, 125 mM NaCl, 40 mM MgCl2 10 mM spermidine) was added together with 15 U of RNA polymerase and ATP (10 μM), CTP (10 mM), UTP (1 mM) and ^32P-UTP (0.1 μCi). The incubation was continued for 10 min. Following ethanol precipitation, the RNA was analyzed by electrophoresis in polyacrylamide sequencing gels, and radialabeled RNA bands were visualized by autoradiography (using Agfa Curix RPI X-ray films and intensifying screens). Quantitation was performed by densitometric scanning using a Molecular Dynamics laser scanner and the ImageQuant™ software.
In this example transcription arrest with PNAs shorter than 10 mers was examined. […]

H-T10LysNH2 [PNA H-T10-LysNH2]
S1 nuclease cutting of linearized plasmid complexed with PNA [1]: a significant fraction of DNA was cut | transcription elongation by RNA polymerase T3 [2]: effectively blocked

From patent US6770738B1, “Higher order structure and binding of peptide nucleic acids” (ISIS Pharmaceuticals, Inc., priority 1992, dated 2004)
